Results reported in patent publication US6703362B1, “Random peptides that bind to gastro-intestinal tract (GIT) transport receptors and related methods” (Cytogen Corporation, priority 1997, dated 2004).
Square brackets hold non-standard residues; d marks the D form. Peptide text beside a SMILES is read from it. * marks the point of attachment. Dansyl = CN(C)c1cccc2c(S(=O)(=O)*)cccc12

Legend:
fixed Caco-2 cells = assay: Inhibition of GST-peptide fusion binding to fixed Caco-2 cells by synthetic peptides; conditions: peptide from 100 μg/ml serially diluted; GST fusion 10 μg
Source text: Caco-2 cells were fixed, treated with phenylhydrazine and blocked as described above. […] GST-PAX2 binding was inhibited by ZElan032, ZElan033, and ZElan035.

[1] = Peptide stability in simulated intestinal fluid (SIF); type: in vitro ADME; conditions: for Rel. Stab.: rank, 1 = most stable to SIF; for remaining at 1 min, 1 mg/ml / remaining at 1 h, 1 mg/ml / remaining at 3 h, 1 mg/ml / remaining at 24 h, 1 mg/ml: simulated intestinal fluid (pancreatin), pH 7.5, 10,000 fold diluted SIF, 37° C.; for remaining at 1 min, 1 mg/ml: read-out: Percent Remaining at: 1 m; for remaining at 1 h, 1 mg/ml: read-out: Percent Remaining at: 1 h; for remaining at 3 h, 1 mg/ml: read-out: Percent Remaining at: 3 h; for remaining at 24 h, 1 mg/ml: read-out: Percent Remaining at: 24 h
Experimental: The relative stability for ZElanO3l, ZElanO53 and ZElan054 was determined in simulated intestinal fluid (SIF) SIF was made by dissolving 100 mg of pancreatin (Sigma cat#P-1625, lot# 122H0812)in 8.4 ml of phosphate stock solution, adjusting the pH to 7.5 with 0.2N NaOH and adjusting the volume to 10 ml with water.
Peptide (3.25 mg) was dissolved in 3.25 ml of 10,000 fold diluted SIF solution at 37° C. Aliquots (0.7 ml) of the digestion solution were then withdrawn at <1 min, 1 h, 3 h, and 21 h or 24 h. The samples were quickly passed through a syringe filter (Millipore Millex-GV 0.22 μm, part# SLGV025LS, lot# H2BM95250) and 300 μL of the filtered solution was immediately injected onto a Hewlett-Packard HPLC system equipped with a C-8 column (Applied Biosystems column and guard column: column-p/n 0711-0023 Spheri-5 ODS 5 μm, 220×4.6 mm). The products were eluted at 1.5 ml/min using an acetonitrile-water gradient. The major fluorescent peaks were collected, lyopholized and identified by MS analysis.

[2] = test system: P100 membrane fractions derived from Caco-2 cells; assay: Dansylated peptide ELISA: relative binding of PAX2 and HAX42 peptides to P100 (ratio to ZElan021); conditions: ratio to ZElan021 = 1.00; for Binding value at 20 μg/ml / Binding value at 50 μg/ml: PAX2 peptides; for Binding value at 25 μg/ml: HAX42 peptides
Experimental: (§1) The peptides and proteins were analyzed by a dansylated peptide ELISA method in which 96 well plates were coated overnight at 4° C. with 100 μl/well coating protein (normally 100 μg/ml P100 membrane fraction) in 0.05M carbonate buffer pH9.6. Nonspecific binding was blocked using 200 μl/well, 2% Marvel/PBS for 2 hours at 37° C. prior to incubation with dansylated peptides. The plates were washed three times with PBS/0.05% Tween 20 and after each subsequent incubation step. […] A buffer blank control was included to ensure that background binding to plastic was not due to the antibodies used in the assay system. […] The plates were then incubated with an anti-mouse X-HRP conjugated antibody (Southern Biotech 1060-05) at a 1:10,000 dilution in blocking solution, 100 μl/well for 1 hour at room temperature. Plates were developed using 75 μl/well Bionostics TMB substrate and incubated for approximately 10 minutes. The developing reaction was stopped using Bionostics Red Stop solution (25 μl/well), and the optical density of the plates was read at 650nm.

[3] = test system: fixed Caco-2 or C2BBe1 cells; assay: ELISA of GST fusion proteins on fixed Caco-2 or C2BBe1 cells; type: binding
Experimental: Fixed Caco-2, C2BBe1, and A431 cell plates were prepared by growing cells on tissue culture treated microtiter plates. When cells were confluent, plates were fixed with 10% formaldehyde, washed twice with PBS and stored with 0.5%BSA-PBS at −20° C. […] The standard ELISA procedure was followed at this point.
The standard ELISA procedure was modified as follows. GST proteins were diluted to an appropriate concentration in PBS containing lkBSA and 0.05% Tween20 (1%BPT), titered and incubated one hour at room temperature. Following five washes an anti-GST monoclonal antibody was added (Sigma, St. Louis Clone GST-2 diluted 1:10,000 in 1%BPT) and incubated one hour. After five more washes goat anti-mouse IgG2b-HRP was added (Southern Biotechnology Associates Inc., Birmingham, Ala., diluted 1:4000 in 1%BPT) and incubated one hour. After five washes plates were developed with TMB peroxidase substrate (Kirkegard and Perry, Gaithersburg, Md.). All data is presented with background binding subtracted.

[4] = test system: P100 membrane fraction derived from Caco-2 cells; assay: GST-PAX2 peptides relative binding to P100 fractions (ratio to GST-HAX42); conditions: 20 μg/ml GST-peptide; binding to plastic subtracted; GST-HAX42 = 1.00
Experimental: as §1
After subtraction of the GST-peptide binding to plastic from P100 binding values, the binding of GST-PAX2 peptides were represented as a ratio of GST-HAX42 binding to P100, which was given the arbitrary value of 1.00. The following ratios were determined from binding to P100 of GST-peptides at a peptide concentration of 20 μg/ml. Bold denotes positive binding to the P100 membrane fraction.

C[C@H](NC(=O)[C@H](CC(N)=O)NC(=O)[C@H](CCC(=O)O)NC(=O)[C@@H](N)CCCCNS(=O)(=O)c1cccc2c(N(C)C)cccc12)C(=O)N[C@@H](CC(N)=O)C(=O)N[C@H](C(=O)N[C@@H](CCCNC(=N)N)C(=O)N[C@@H](CCCCN)C(=O)N[C@@H](CO)C(=O)N[C@@H](CO)C(=O)N[C@@H](CCCNC(=N)N)C(=O)N[C@@H](CO)C(=O)N[C@@H](CC(N)=O)C(=O)N1CCC[C@H]1C(=O)N[C@@H](CCCNC(=N)N)C(=O)NCC(=O)N[C@@H](CCCNC(=N)N)C(=O)N[C@@H](CCCNC(=N)N)C(=O)N[C@@H](Cc1c[nH]cn1)C(=O)N1CCC[C@H]1C(=O)NCC(N)=O)[C@@H](C)O [ZElan028] (H-K(Dansyl)ENANTRKSSRSNPRGRRHPG-NH2)
inhibition of GST-P31 binding (fixed Caco-2 cells): inhibited

C[C@@H](O)[C@H](NC(=O)[C@@H](N)CCCCNS(=O)(=O)c1cccc2c(N(C)C)cccc12)C(=O)N[C@@H](CCCNC(=N)N)C(=O)N[C@@H](CCCCN)C(=O)N[C@@H](CO)C(=O)N[C@@H](CO)C(=O)N[C@@H](CCCNC(=N)N)C(=O)N[C@@H](CO)C(=O)N[C@@H](CC(N)=O)C(=O)N1CCC[C@H]1C(=O)N[C@@H](CCCNC(=N)N)C(=O)NCC(=O)N[C@@H](CCCNC(=N)N)C(=O)N[C@@H](CCCNC(=N)N)C(=O)N[C@@H](Cc1c[nH]cn1)C(=O)N1CCC[C@H]1C(=O)NCC(N)=O [ZElan031] (H-K(Dansyl)TRKSSRSNPRGRRHPG-NH2)
Rel. Stab. [1]: 3 | remaining at 1 min, 1 mg/ml [1]: 100% | remaining at 1 h, 1 mg/ml [1]: 38.7% | remaining at 3 h, 1 mg/ml [1]: 0% | remaining at 24 h, 1 mg/ml [1]: 0% | inhibition of GST-P31 binding (fixed Caco-2 cells): inhibited

CC(C)C[C@H](NC(=O)[C@H](CCCNC(=N)N)NC(=O)[C@H](CCCNC(=N)N)NC(=O)[C@H](CC(N)=O)NC(=O)[C@H](Cc1c[nH]cn1)NC(=O)[C@H](CO)NC(=O)[C@H](CO)NC(=O)[C@H](Cc1c[nH]cn1)NC(=O)[C@H](CCCCN)NC(=O)[C@H](C)NC(=O)[C@H](CC(N)=O)NC(=O)[C@@H](NC(=O)[C@@H](N)CCCCNS(=O)(=O)c1cccc2c(N(C)C)cccc12)[C@@H](C)O)C(=O)N[C@@H](CCCNC(=N)N)C(=O)N[C@H](C(=O)N[C@@H](CCCNC(=N)N)C(=O)N[C@@H](CO)C(=O)N[C@@H](CCCNC(=N)N)C(=O)N1CCC[C@H]1C(=O)N[C@@H](CC(N)=O)C(N)=O)[C@@H](C)O [ZElan032] (H-K(Dansyl)TNAKHSSHNRRLRTRSRPN-NH2)
Binding value at 20 μg/ml ([2]; first 20 μg/ml column): 1.43 | Binding value at 50 μg/ml ([2]; first 50 μg/ml column): 0.95 | Binding value at 20 μg/ml ([2]; second 20 μg/ml column): 2.87 | Binding value at 50 μg/ml ([2]; second 50 μg/ml column): 1.06 | inhibition of GST-PAX2 binding (fixed Caco-2 cells): inhibited

CC(C)C[C@H](NC(=O)[C@H](CCCNC(=N)N)NC(=O)[C@H](CCCNC(=N)N)NC(=O)[C@H](CC(N)=O)NC(=O)[C@H](Cc1c[nH]cn1)NC(=O)[C@H](CO)NC(=O)[C@H](CO)NC(=O)[C@H](Cc1c[nH]cn1)NC(=O)[C@H](CCCCN)NC(=O)[C@H](C)NC(=O)[C@H](CC(N)=O)NC(=O)[C@@H](NC(=O)[C@@H](N)CCCCNS(=O)(=O)c1cccc2c(N(C)C)cccc12)[C@@H](C)O)C(=O)N[C@@H](CCCNC(=N)N)C(=O)N[C@H](C(=O)N[C@@H](CCCNC(=N)N)C(N)=O)[C@@H](C)O [ZElan033] (H-K(Dansyl)TNAKHSSHNRRLRTR-NH2)
Binding value at 20 μg/ml ([2]; first 20 μg/ml column): 0.35 | Binding value at 50 μg/ml ([2]; first 50 μg/ml column): 0.80 | Binding value at 20 μg/ml ([2]; second 20 μg/ml column): 1.57 | Binding value at 50 μg/ml ([2]; second 50 μg/ml column): 0.66 | inhibition of GST-PAX2 binding (fixed Caco-2 cells): inhibited

CC(C)C[C@H](NC(=O)[C@H](CCCNC(=N)N)NC(=O)[C@H](CCCNC(=N)N)NC(=O)[C@H](CC(N)=O)NC(=O)[C@H](Cc1c[nH]cn1)NC(=O)[C@H](CO)NC(=O)[C@H](CO)NC(=O)[C@@H](N)CCCCNS(=O)(=O)c1cccc2c(N(C)C)cccc12)C(=O)N[C@@H](CCCNC(=N)N)C(=O)N[C@H](C(=O)N[C@@H](CCCNC(=N)N)C(N)=O)[C@@H](C)O [ZElan035] (H-K(Dansyl)SSHNRRLRTR-NH2)
Binding value at 20 μg/ml ([2]; first 20 μg/ml column): 0.12 | Binding value at 50 μg/ml ([2]; first 50 μg/ml column): 0.81 | Binding value at 20 μg/ml ([2]; second 20 μg/ml column): 0.43 | Binding value at 50 μg/ml ([2]; second 50 μg/ml column): 0.77 | inhibition of GST-PAX2 binding (fixed Caco-2 cells): inhibited

C[C@@H](O)[C@H](NC(=O)[C@@H](N)CCCCNS(=O)(=O)c1cccc2c(N(C)C)cccc12)C(=O)N[C@@H](CCCNC(=N)N)C(=O)N[C@@H](CCCCN)C(=O)N[C@@H](CO)C(=O)N[C@@H](CO)C(=O)N[C@H](CCCNC(=N)N)C(=O)N[C@@H](CO)C(=O)N[C@@H](CC(N)=O)C(=O)N1CCC[C@H]1C(=O)N[C@@H](CCCNC(=N)N)C(=O)NCC(=O)N[C@H](CCCNC(=N)N)C(=O)N[C@@H](CCCNC(=N)N)C(=O)N[C@@H](Cc1c[nH]cn1)C(=O)N1CCC[C@H]1C(=O)NCC(N)=O [ZElan054, H2N—K(dns)TRKSSrSNPRGrRHPG—CONH2] (H-K(Dansyl)TRKSS[dR]SNPRG[dR]RHPG-NH2)
Rel. Stab. [1]: 2 | remaining at 1 min, 1 mg/ml [1]: 97.4% | remaining at 1 h, 1 mg/ml [1]: 58.2% | remaining at 3 h, 1 mg/ml [1]: 11.6% | remaining at 24 h, 1 mg/ml [1]: 2.7% | inhibition of GST-P31 binding (fixed Caco-2 cells): inhibited

C[C@@H](O)[C@H](NC(=O)[C@H](CO)NC(=O)[C@H](CC(N)=O)NC(=O)CNC(=O)[C@H](CC(N)=O)NC(=O)CNC(=O)[C@H](CS)NC(=O)[C@H](CS)NC(=O)[C@H](CC(N)=O)NC(=O)[C@H](Cc1ccc(O)cc1)NC(=O)[C@H](CC(=O)O)NC(=O)CNC(=O)[C@@H]1CCCN1C(=O)[C@H](CCC(=O)O)NC(=O)[C@@H](N)CCCCNS(=O)(=O)c1cccc2c(N(C)C)cccc12)C(=O)NCC(=O)O [ZElan090] (H-K(Dansyl)EPGDYNCCGNGNSTG-OH; C-terminus assumed)
Binding value at 25 μg/ml ([2]; first 25 μg/ml column): 2.06 | Binding value at 25 μg/ml ([2]; second 25 μg/ml column): 1.54 | Binding value at 25 μg/ml ([2]; third 25 μg/ml column): 2.16

H-K(Dansyl)GRNHDVVSSNTHKSYRSPRSASYPRLSNDRTDRTEPAPSS-NH2 [ZElan083, reference compound]
Binding value at 20 μg/ml ([2]; first 20 μg/ml column): 0.43 | Binding value at 50 μg/ml ([2]; first 50 μg/ml column): 1.03 | Binding value at 20 μg/ml ([2]; second 20 μg/ml column): 0.63 | Binding value at 50 μg/ml ([2]; second 50 μg/ml column): 0.88

H-K(Dansyl)SARDSGPAEDGSRAVRLNGVENANTRKSSRSNPRGRRHPGG-NH2 [ZElan024]
inhibition of GST-P31 binding (fixed Caco-2 cells): inhibited

H-K(Dansyl)SEANLDGRKSRYSSPRRNSSTRPRTSPNSVHARYPSTDHD-NH2 [ZElan026, reference compound]
inhibition of GST-HAX42 binding (fixed Caco-2 cells): inhibited

H-K(Dansyl)SRANTDGRKSRYSSPRRNSSTEPRLSPNSVHARYPSTDHD-NH2 [ZElan038, reference compound]
inhibition of GST-HAX42 binding (fixed Caco-2 cells): inhibited

gst-RGSTGTAGGERSGVLNLHTRDNASGSGFKPWYPSNRGHK [GST-5PAX5]
binding to fixed Caco-2 or C2BBe1 cells relative to GST control [3]: weak to moderate binding

gst-RRLRTRSRPN [GST-115]
Value (binding to P100 as ratio of GST-HAX42 binding) [4]: 0.36

gst-SPCGGGSWGRFMQGGLFGGRTDGCGAHRNRTSASLEPPSSDY [GST-SNi34]
binding to fixed Caco-2 or C2BBe1 cells relative to GST control [3]: bound fixed Caco-2 or C2BBe1 cells
